Test system: transgenic soybean plants
Test: Detection of the herbicide tolerance of the transgenic soybean plants
Format: in vivo
Parameters: key to damage levels rated at grade: grade 0 means that the growth status of plants is essentially consistent with those sprayed with the blank solvent (water); grade 1 means that the average of the damage levels of plants is less than 10%; grade 2 means that the average of the damage levels of plants is greater than 10%; grade 3 means that the average of the damage levels of plants is 100%
Details: for The grade of pesticide damage/plant: 0 / The grade of pesticide damage/plant: 1 / The grade of pesticide damage/plant: 2 / The grade of pesticide damage/plant: 3: 7 DAT
[1] = genotype Control vector, 50 g ai/ha
[2] = genotype Control vector, 100 g ai/ha
[3] = genotype PPO-AP-01, 100 g ai/ha
[4] = genotype PPO-EC-01, 100 g ai/ha

## CC(C)N(C)S(=O)(=O)NC(=O)c1cc(-n2c(=O)cc(C(F)(F)F)n(C)c2=O)c(F)cc1Cl [saflufenacil, N′-[2-chloro-4-fluoro-5-(3-methyl-2,6-dioxo-4-(trifluoromethyl)-3,6-dihydro-1 (2H)-pyrimidine)benzoyl]-N-isopropyl-N-methylsulfamide]
Genotype CK, 50 g ai/ha
  The grade of pesticide damage/plant: 0: 0 plant
  The grade of pesticide damage/plant: 1: 0 plant
  The grade of pesticide damage/plant: 2: 0 plant
  The grade of pesticide damage/plant: 3: 16 plant
Genotype CK, 100 g ai/ha
  The grade of pesticide damage/plant: 0: 0 plant
  The grade of pesticide damage/plant: 1: 0 plant
  The grade of pesticide damage/plant: 2: 0 plant
  The grade of pesticide damage/plant: 3: 16 plant
[1]
  The grade of pesticide damage/plant: 0: 0 plant
  The grade of pesticide damage/plant: 1: 0 plant
  The grade of pesticide damage/plant: 2: 0 plant
  The grade of pesticide damage/plant: 3: 16 plant
[2]
  The grade of pesticide damage/plant: 0: 0 plant
  The grade of pesticide damage/plant: 1: 0 plant
  The grade of pesticide damage/plant: 2: 0 plant
  The grade of pesticide damage/plant: 3: 16 plant
Genotype PPO-AP-01, 50 g ai/ha
  The grade of pesticide damage/plant: 0: 0 plant
  The grade of pesticide damage/plant: 1: 0 plant
  The grade of pesticide damage/plant: 2: 8 plant
  The grade of pesticide damage/plant: 3: 8 plant
[3]
  The grade of pesticide damage/plant: 0: 0 plant
  The grade of pesticide damage/plant: 1: 0 plant
  The grade of pesticide damage/plant: 2: 0 plant
  The grade of pesticide damage/plant: 3: 16 plant
Genotype PPO-AP-01, at different concentrations
  tolerance to the herbicide (in words): basically no tolerance
Genotype PPO-EC-01, 50 g ai/ha
  The grade of pesticide damage/plant: 0: 9 plant
  The grade of pesticide damage/plant: 1: 7 plant
  The grade of pesticide damage/plant: 2: 0 plant
  The grade of pesticide damage/plant: 3: 0 plant
[4]
  The grade of pesticide damage/plant: 0: 8 plant
  The grade of pesticide damage/plant: 1: 3 plant
  The grade of pesticide damage/plant: 2: 5 plant
  The grade of pesticide damage/plant: 3: 0 plant
Genotype PPO-EC-01, four-fold field concentration
  share of the plants that exhibited moderate- or poor-resistant tolerance: about 32%
Genotype PPO-EC-01, two-fold field concentration
  share of the plants rated at grade 1: about 44%
Genotype PPOA-01, 50 g ai/ha
  The grade of pesticide damage/plant: 0: 16 plant
  The grade of pesticide damage/plant: 1: 0 plant
  The grade of pesticide damage/plant: 2: 0 plant
  The grade of pesticide damage/plant: 3: 0 plant
Genotype PPOA-01, 100 g ai/ha
  The grade of pesticide damage/plant: 0: 16 plant
  The grade of pesticide damage/plant: 1: 0 plant
  The grade of pesticide damage/plant: 2: 0 plant
  The grade of pesticide damage/plant: 3: 0 plant
Genotype PPOB-01, 50 g ai/ha
  The grade of pesticide damage/plant: 0: 16 plant
  The grade of pesticide damage/plant: 1: 0 plant
  The grade of pesticide damage/plant: 2: 0 plant
  The grade of pesticide damage/plant: 3: 0 plant
Genotype PPOB-01, 100 g ai/ha
  The grade of pesticide damage/plant: 0: 16 plant
  The grade of pesticide damage/plant: 1: 0 plant
  The grade of pesticide damage/plant: 2: 0 plant
  The grade of pesticide damage/plant: 3: 0 plant
Genotype PPOC-01, 50 g ai/ha
  The grade of pesticide damage/plant: 0: 16 plant
  The grade of pesticide damage/plant: 1: 0 plant
  The grade of pesticide damage/plant: 2: 0 plant
  The grade of pesticide damage/plant: 3: 0 plant
Genotype PPOC-01, 100 g ai/ha
  The grade of pesticide damage/plant: 0: 16 plant
  The grade of pesticide damage/plant: 1: 0 plant
  The grade of pesticide damage/plant: 2: 0 plant
  The grade of pesticide damage/plant: 3: 0 plant
Genotype PPOD-01, 50 g ai/ha
  The grade of pesticide damage/plant: 0: 16 plant
  The grade of pesticide damage/plant: 1: 0 plant
  The grade of pesticide damage/plant: 2: 0 plant
  The grade of pesticide damage/plant: 3: 0 plant
Genotype PPOD-01, 100 g ai/ha
  The grade of pesticide damage/plant: 0: 16 plant
  The grade of pesticide damage/plant: 1: 0 plant
  The grade of pesticide damage/plant: 2: 0 plant
  The grade of pesticide damage/plant: 3: 0 plant
Genotype PPOE-01, 50 g ai/ha
  The grade of pesticide damage/plant: 0: 16 plant
  The grade of pesticide damage/plant: 1: 0 plant
  The grade of pesticide damage/plant: 2: 0 plant
  The grade of pesticide damage/plant: 3: 0 plant
Genotype PPOE-01, 100 g ai/ha
  The grade of pesticide damage/plant: 0: 15 plant
  The grade of pesticide damage/plant: 1: 1 plant
  The grade of pesticide damage/plant: 2: 0 plant
  The grade of pesticide damage/plant: 3: 0 plant
Genotype PPOF-01, 50 g ai/ha
  The grade of pesticide damage/plant: 0: 16 plant
  The grade of pesticide damage/plant: 1: 0 plant
  The grade of pesticide damage/plant: 2: 0 plant
  The grade of pesticide damage/plant: 3: 0 plant
Genotype PPOF-01, 100 g ai/ha
  The grade of pesticide damage/plant: 0: 16 plant
  The grade of pesticide damage/plant: 1: 0 plant
  The grade of pesticide damage/plant: 2: 0 plant
  The grade of pesticide damage/plant: 3: 0 plant
Genotypes PPOA-01 to PPOF-01, four-fold field concentration
  tolerance to the herbicide (in words): high-resistant tolerance
Genotypes PPOA-01 to PPOF-01, two-fold field concentration
  damage levels rated at grade: 0
Genotypes PPOA-01 to PPOF-01 and PPO-EC-01, compared with the control vector and CK
  tolerance to the herbicide (in words): different extents of tolerance

— US20250275540A1, “USE OF PROTOPORPHYRINOGEN OXIDASE” (BEIJING DABEINONG BIOTECHNOLOGY CO., LTD., priority 2022, published 2025)
